Test results: paper PMC13201158, “A generative artificial intelligence approach for peptide antibiotic optimization” (Nature Machine Intelligence, 2026)
No end group written: not given here.

Key:
[1] = tested on: human embryonic kidney (HEK293T) cells; assay: Cytotoxicity assay (MTT); format: cell-based; conditions: 24 h exposure, concentration range tested 4–64 μmol l^−1 (method: 8–128 μmol l^−1), three biological replicates
Protocol: One day before the experiment, an aliquot of 100 μl of the cells at 50,000 cells ml^−1 was seeded into each well of the cell-treated 96-well plates used in the experiment. The attached HEK293T cells were then exposed to increasing concentrations of the peptides (8–128 μmol l^−1) for 24 h. After the incubation period, we performed the 3-(4,5-dimethylthiazol-2-yl)-2,5-diphenyltetrazolium bromide tetrazolium reduction assay (MTT assay)[55]. The MTT reagent was dissolved at 0.5 mg ml^−1 in the medium without phenol red and was used to replace cell culture supernatants containing the peptides (100 μl per well). The samples were incubated for 4 h at 37 °C in a humidified atmosphere containing 5% CO2, yielding the insoluble formazan salt. The resulting salts were then resuspended in hydrochloric acid (0.04 mol l^−1) in anhydrous isopropanol and quantified by spectrophotometric measurements of absorbance at 570 nm. All assays were done as three biological replicates.

A. baumannii ATCC 19606 [2] = assay: Cytoplasmic membrane depolarization assay (DiSC3-5); format: cell-based, Acinetobacter baumannii; conditions: A. baumannii ATCC 19606, peptides at their MIC, 60 min; compared with polymyxin B and levofloxacin
Protocol: The cytoplasmic membrane depolarization assay was performed using the membrane-potential-sensitive dye DiSC3-5. A. baumannii ATCC 19606 in the mid-logarithmic phase were washed and resuspended at 0.05 OD ml^−1 (optical value at 600 nm) in HEPES buffer (pH 7.2) containing 20 mmol l^−1 of glucose and 0.1 mol l^−1 of KCl. DiSC3-5 (20 μmol l^−1) was added to the bacterial suspension (100 μl per well) for 15 min to stabilize the fluorescence, which indicates the incorporation of the dye into the bacterial membrane, and then the peptides were mixed 1:1 with the bacteria to a final concentration corresponding to their MIC values. Membrane depolarization was then followed by reading changes in the fluorescence (λex = 622 nm, λem = 670 nm) over time for 60 min. The relative fluorescence was calculated using the untreated control (buffer + bacteria + fluorescent dye) and polymyxin B (positive control) as baselines and the following equation was applied to reflect the percentage of difference between the baselines and the sample: Percentagedifference=100×(fluorescencesample−fluorescenceuntreatedcontrol)/fluorescenceuntreatedcontrol.

A. baumannii ATCC 19606 [3] = format: cell-based, Acinetobacter baumannii; conditions: ATCC 19606, 24 h
Description: In this study, we used the following pathogenic bacterial strains: A. baumannii ATCC 19606, E. coli ATCC 11775, E. coli AIC221 [E. coli MG1655 phnE_2::FRT (control strain for AIC 222)], E. coli AIC222 [E. coli MG1655 pmrA53 phnE_2::FRT (polymyxin resistant; colistin-resistant strain)], K. pneumoniae ATCC 13883, P. aeruginosa PAO1, P. aeruginosa PA14, Staphylococcus aureus ATCC 12600, S. aureus ATCC BAA-1556 (methicillin-resistant strain), Enterococcus faecalis ATCC 700802 (vancomycin-resistant strain), and Enterococcus faecium ATCC 700221 (vancomycin-resistant strain). Pseudomonas Isolation (P. aeruginosa strains) agar plates were exclusively used in the case of Pseudomonas species. All the other pathogens were grown in Luria–Bertani (LB) broth and on LB agar. In all the experiments, bacteria were inoculated from one-isolated colony and grown overnight (16 h) in a liquid medium at 37 °C. On the following day, inoculums were diluted 1:100 in fresh media and incubated at 37 °C to mid-logarithmic phase.
Broth microdilution assays were conducted to establish the MIC for each peptide[53]–[55]. Peptides were added to untreated polystyrene 96-well microtitre plates and serially diluted twofold in sterile water, ranging from 0 to 64 μmol l^−1. A bacterial inoculum at a concentration of 10^6 CFU ml^−1 in LB medium was then mixed in a 1:1 ratio with the peptide solution. […] Each assay was performed in three independent replicates.

| Sequence | MIC, A. baumannii ATCC 19606 (A. baumannii ATCC 19606 [3]) [µM] | cytoplasmic membrane depolarization (DiSC3-5 fluorescence) (A. baumannii ATCC 19606 [2]) | other results |
| --- | --- | --- | --- |
| LRIKNHWIHFRVLAKALW [Hesperelin-3-9] |  |  | cytotoxicity against HEK293T cells [1]: generally non-toxic, except for hesperelin-3-9 |
| HKIKINTIKLKIKLKI [Lophiosin-1-3] |  | effective depolarizers |  |
| IASLHARSIARLLKRWINVHQGLGLKW [Mammuthusin-2-7] |  | highest depolarization activity within its family |  |
| RNLVRWVAGLKLKKKVIKIKVGIGRWANIK [Hydrodamin-3-9] | 8 |  |  |

Now from value to sequence, other results behind:

| MIC, A. baumannii ATCC 19606 (A. baumannii ATCC 19606 [3]) [µM] | Sequence | cytoplasmic membrane depolarization (DiSC3-5 fluorescence) (A. baumannii ATCC 19606 [2]) | other results |
| --- | --- | --- | --- |
| 64 | KRKRGLKLATALSLNNKF [Mylodonin-2] |  |  |
| 32 | KTLKIIRLLF [Mammuthusin-3] |  |  |
